Measured values published in patent publication US8198295B2, “Benzonaphthyridines” (Nycomed GmbH, priority 2002, dated 2012).
Where a name gives a salt, the structure may show the parent alone. Read-outs that look alike come from different tables or passages of the source.

What was measured:
[1] = target: PDE4 (cAMP-specific), cytosol of human polymorphonuclear leukocytes (PMNL); assay: Inhibition of PDE isoenzymes: PDE4; type: biochemical; settings: cAMP as substrate, motapizone (1 μM) present
Description: (§1) The PDE activity was determined according to Thompson et al. (Adv Cycl Nucl Res 10: 69-92, 1979) with some modifications (Bauer and Schwabe, Naunyn-Schmiedeberg's Arch Pharmacol 311: 193-198, 1980). The test samples contained 20 mM Tris (pH 7.4), 5 mM MgCl2, 0.5 μM CAMP or CGMP, [^3H]cAMP or [^3H]cGMP (about 30 000 cpm/sample), the PDE isoenzyme-specific additives described in greater detail below, the Indicated concentrations of inhibitor and an aliquot of the enzyme solution in a total sample volume of 200 μl. Dilution series of the compounds according to the invention were prepared in DMSO and further diluted in the samples [1:100 (v/v)], to give the desired end concentration of the inhibitors at a DMSO concentration of 1% (vN), which for its part has only a minute effect on PDE activity.
(§2) After preincubation at 37° C. for 5 minutes, the reaction was started by addition of the substrate (CAMP or cGMP). The samples were incubated at 37° C. for a further 15 min. The reaction was terminated by addition of 50 μl 0.2 N HCl. After cooling on ice for 10 minutes and addition of 25 μg 5′-nucleotidase (snake venom from Crotalus atrox), the mixture was again incubated at 37° C. for 10 min and the samples were then applied to QAE Sephadex A-25 columns (sample volume 1 ml). The columns were eluted with 2 ml of 30 mM ammonium formate (pH 6.0). The radioactivity of the eluate was measured and corrected by the corresponding blank values (measured in the presence of denatured protein); the blank values were less than 5% of the total radioactivity. In no case did the proportion of hydrolyzed nucleotide exceed 30% of the original substrate concentration.
PDE4 (cAMP-specific) was investigated in the cytosol of human polymorphonuclear leukocytes (PMNL) [isolated from leukocyte concentrates, see Schudt et al., Arch Pharmacol 1991: 344, 682-690] using CAMP as substrate. The PDE3 inhibitor motapizone (1 μM) was used to suppress the PDE3 activity emanating from contaminated platelets.
(§3) The IC50 values were determined from the concentration-inhibition curves by nonlinear regression.

[2] = target: T1, PDE3 (cGMP-inhibited), homogenates of human platelets (Homo sapiens, UniProt Q14432); assay: Inhibition of PDE isoenzymes: PDE3; type: biochemical
T1 construct: from tissue; host or cells: homogenates of human platelets
T1 sequence (Q14432 whole entry): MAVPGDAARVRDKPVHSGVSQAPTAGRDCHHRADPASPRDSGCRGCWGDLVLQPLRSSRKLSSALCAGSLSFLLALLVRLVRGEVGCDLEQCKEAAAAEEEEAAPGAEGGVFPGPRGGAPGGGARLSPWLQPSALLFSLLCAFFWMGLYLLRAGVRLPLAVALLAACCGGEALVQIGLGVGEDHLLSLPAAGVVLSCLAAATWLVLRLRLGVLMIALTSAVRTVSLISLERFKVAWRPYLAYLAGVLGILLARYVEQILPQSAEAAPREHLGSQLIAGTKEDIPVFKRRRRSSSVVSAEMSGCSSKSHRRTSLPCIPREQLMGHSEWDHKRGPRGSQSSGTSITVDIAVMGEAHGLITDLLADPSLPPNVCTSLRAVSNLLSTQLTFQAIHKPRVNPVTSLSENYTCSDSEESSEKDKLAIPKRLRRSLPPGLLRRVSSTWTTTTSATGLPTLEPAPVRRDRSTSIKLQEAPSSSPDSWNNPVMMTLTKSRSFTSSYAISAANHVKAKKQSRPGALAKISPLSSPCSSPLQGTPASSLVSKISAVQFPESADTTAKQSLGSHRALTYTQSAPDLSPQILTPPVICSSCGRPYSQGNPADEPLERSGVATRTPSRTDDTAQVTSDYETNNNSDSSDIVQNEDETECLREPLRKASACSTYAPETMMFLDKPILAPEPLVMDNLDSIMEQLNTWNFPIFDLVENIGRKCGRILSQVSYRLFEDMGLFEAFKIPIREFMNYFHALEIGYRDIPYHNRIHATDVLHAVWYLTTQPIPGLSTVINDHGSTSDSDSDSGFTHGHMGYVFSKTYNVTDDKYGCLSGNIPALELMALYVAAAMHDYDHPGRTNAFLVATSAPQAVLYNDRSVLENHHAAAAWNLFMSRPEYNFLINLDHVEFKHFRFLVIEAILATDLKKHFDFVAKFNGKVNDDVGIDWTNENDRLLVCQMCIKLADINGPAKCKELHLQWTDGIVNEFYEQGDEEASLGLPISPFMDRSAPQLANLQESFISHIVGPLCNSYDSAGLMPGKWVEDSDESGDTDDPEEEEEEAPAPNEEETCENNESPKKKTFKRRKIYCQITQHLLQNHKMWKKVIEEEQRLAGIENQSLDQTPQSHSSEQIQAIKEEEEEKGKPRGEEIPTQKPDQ
Description: as §1, §2
PDE3 (cGMP-inhibited) was investigated in homogenates of human platelets (see Schudt et al., Biochem Pharmacol 1991: 42, 153-162) using CAMP or cGMP as substrate.
as §3

[3] = homogenates of human platelets, cAMP or cGMP as substrate, read-out: PDE3 [−log IC50, mol/l] (converted)

CCOc1cc2c(cc1OC)C(c1ccc(C(=O)N(C(C)C)[C@@H](C)COC(=O)Cc3ccccc3)cc1)=N[C@@H]1CCN(C)C[C@H]21 [Compound 1, Phenyl-acetic acid (S)-2-({1-[4-((4aR,10bS)-9-ethoxy-8-methoxy-2-methyl-1,2,3,4a,10b-hexahydro-benzo[c][1,6]naphthyridin-6-yl)-phenyl]-methanoyl}-isopropyl-amino)-propyl ester]
PDE4 [−log IC50, mol/l] [1]: 9.8 −log IC50, mol/l
IC50 [2]: 0.0501 µM

CCOc1cc2c(cc1OC)C(c1ccc(C(=O)N(C(C)C)C(C)CCOC(=O)Cc3ccccc3)cc1)=N[C@@H]1CCN(C)C[C@H]21 (stereo partly drawn) [Compound 7, Phenyl-acetic acid 3-({1-[4((4aR,10bS)-9-ethoxy-8-methoxy-2-methyl-1,2,3,4,4a,10b-hexahydro-benzo[c][1,6]naphthyridin-6-yl)-phenyl]-methanoyl}-isopropyl-amino)-butyl ester]
PDE4 [−log IC50, mol/l] [1]: 9.6 −log IC50, mol/l
IC50 [2]: 0.0316 µM

CCOc1cc2c(cc1OC)C(c1ccc(C(=O)N(C(C)C)[C@@H](C)COC(=O)c3ccc(OC)c(OC)c3)cc1)=N[C@@H]1CCN(C)C[C@H]21 [Compound 3, 3,4-Dimethoxy-benzoic acid(S)2-({1-[4-((4aR,10bS)-9-ethoxy-8-methoxy-2-methyl-1,2,3,4,4a,10b-hexahdro-benzo[c][1,6]naphthyridin-6-yl)-phenyl]-methanoyl}-isopropyl-amino)-propyl ester]
PDE4 [−log IC50, mol/l] [1]: 9.4 −log IC50, mol/l
IC50 [2, 3]: 0.0316 µM

CCOc1cc2c(cc1OC)C(c1ccc(C(=O)N(C(C)C)[C@H](C)CO)cc1)=N[C@@H]1CCN(C)C[C@H]21 [Compound 12]
PDE4 [−log IC50, mol/l] [1]: 8.8 −log IC50, mol/l
IC50 [2, 3]: 0.0794 µM

CCOc1cc2c(cc1OC)C(c1ccc(C(=O)N(C(C)C)C(C)CCOC(=O)Cc3ccc(OC)c(OC)c3)cc1)=N[C@@H]1CCN(C)C[C@H]21 (stereo partly drawn) [Compound 8, (3.4-Dimethoxy-phenyl)-acetic acid 3-({1-[4-((4aR,10bS)-9-ethoxy-8-methoxy-2-methyl-1,2,3,4,4a.10b-hexahydro-benzo[c][1,6]naphthyridin-6-yl)-phenyl]-methanoyl}-isopropyl-amino)-butyl ester]
PDE4 [−log IC50, mol/l] [1]: 9.6 −log IC50, mol/l
IC50 [2, 3]: 0.0501 µM

CCOc1cc2c(cc1OC)C(c1ccc(C(=O)N(C(C)C)[C@@H](C)COC(C)=O)cc1)=N[C@@H]1CCN(C)C[C@H]21 [Compound 5, Acetic acid (S-2-({1-[4-((4aR,10bS)-9-ethoxy-8-methoxy-2-methyl-1,2,3,4,4a,10b-hexahydro-benzo[c][1,6]naphthyyrdin-6-yl)-phenyl]-methanoyl}-isopropyl-amino)-propyl esterdihydrochloride]
PDE4 [−log IC50, mol/l] [1]: 9.2 −log IC50, mol/l
IC50 [2, 3]: 0.0794 µM

CCOc1cc2c(cc1OC)C(c1ccc(C(=O)N(C(C)C)C(C)CCOC(=O)c3ccccc3)cc1)=N[C@@H]1CCN(C)C[C@H]21 (stereo partly drawn) [Compound 6, Benzoic acid 3-({1-[4-((4aR,10bS)-9-ethoxy-8-methoxy-2-methyl-1,2,3,4,4a,10b-hexahydro-benzo[c][1,6]naphthyridin-6-yl)-phenyl]-methanoyl}-isopropyl-amino)-butyl ester]
PDE4 [−log IC50, mol/l] [1]: 9.2 −log IC50, mol/l
IC50 [2, 3]: 0.1 µM

CCOc1cc2c(cc1OC)C(c1ccc(C(=O)N(C(C)C)[C@@H](C)COC(=O)c3cc(OC)cc(OC)c3)cc1)=N[C@@H]1CCN(C)C[C@H]21 [Compound 4]
PDE4 [−log IC50, mol/l] [1]: 9.3 −log IC50, mol/l
IC50 [2, 3]: 0.0398 µM

CCOc1cc2c(cc1OC)C(c1ccc(C(=O)N(C(C)C)[C@@H](C)CO)cc1)=N[C@@H]1CCN(C)C[C@H]21 [Compound 11]
PDE4 [−log IC50, mol/l] [1]: 8.9 −log IC50, mol/l
IC50 [2, 3]: 0.0794 µM

CCOc1cc2c(cc1OC)C(c1ccc(C(=O)N(C(C)C)[C@@H](C)COC(=O)c3ccccc3)cc1)=N[C@@H]1CCN(C)C[C@H]21 [Compound 2]
PDE4 [−log IC50, mol/l] [1]: 9 −log IC50, mol/l
IC50 [2, 3]: 0.0251 µM
